# From ChEMBL document CHEMBL3046147, “Synthesis and Herbicidal Activity of 1-Arylalkyl-3-pyrrolin-2-one Derivatives” (J Pestic Sci, 2000)
# Activity calls are given as the source filed them. No cut-off for these calls is given here.
# Assays:
# Echinochloa oryzicola [1] = assay: Herbicidal activity against Echinochloa oryzicola grown in water-drained pot under greenhouse condition assessed as growth inhibition at 125 g /ha measured after 13 days; assay type: functional, organism-based
# Echinochloa oryzicola [2] = assay: Herbicidal activity against Echinochloa oryzicola under greenhouse condition assessed as growth inhibition at 125 g /ha measured after 20 days; assay type: functional, organism-based
# Echinochloa oryzicola [3] = assay: Herbicidal activity against Echinochloa oryzicola under greenhouse condition assessed as growth inhibition at 125 g /ha measured after 13 days; assay type: functional, organism-based
# Echinochloa oryzicola [4] = assay: Herbicidal activity against Echinochloa oryzicola under greenhouse condition assessed as growth inhibition at 500 g /ha measured after 33 days; assay type: functional, organism-based
# Echinochloa oryzicola [5] = assay: Herbicidal activity against Echinochloa oryzicola grown in water-drained pot under greenhouse condition assessed as growth inhibition at 500 g /ha measured after 6 days; assay type: functional, organism-based
# Echinochloa oryzicola [6] = assay: Herbicidal activity against Echinochloa oryzicola grown in water-drained pot under greenhouse condition assessed as growth inhibition at 500 g /ha measured after 33 days; assay type: functional, organism-based
# Echinochloa oryzicola [7] = assay: Herbicidal activity against Echinochloa oryzicola grown in water-drained pot under greenhouse condition assessed as growth inhibition at 125 g /ha measured after 20 days; assay type: functional, organism-based
# Echinochloa oryzicola [8] = assay: Herbicidal activity against Echinochloa oryzicola under greenhouse condition assessed as growth inhibition at 125 g /ha measured after 27 days; assay type: functional, organism-based
# Echinochloa oryzicola [9] = assay: Herbicidal activity against Echinochloa oryzicola under greenhouse condition assessed as growth inhibition at 125 g /ha measured after 33 days; assay type: functional, organism-based
# Echinochloa oryzicola [10] = assay: Herbicidal activity against Echinochloa oryzicola grown in water-drained pot under greenhouse condition assessed as growth inhibition at 125 g /ha measured after 6 days; assay type: functional, organism-based
# Echinochloa oryzicola [11] = assay: Herbicidal activity against Echinochloa oryzicola grown in water-drained pot under greenhouse condition assessed as growth inhibition at 125 g /ha measured after 27 days; assay type: functional, organism-based
# Echinochloa oryzicola [12] = assay: Herbicidal activity against Echinochloa oryzicola under greenhouse condition assessed as time duration of residual effect at 125 g /ha; assay type: functional
# Echinochloa oryzicola [13] = assay: Herbicidal activity against Echinochloa oryzicola under greenhouse condition assessed as growth inhibition at 500 g /ha measured after 42 days; assay type: functional, organism-based
# Echinochloa oryzicola [14] = assay: Herbicidal activity against Echinochloa oryzicola grown in water-drained pot under greenhouse condition assessed as growth inhibition at 500 g /ha measured after 20 days; assay type: functional, organism-based
# Echinochloa oryzicola [15] = assay: Herbicidal activity against Echinochloa oryzicola grown in water-drained pot under greenhouse condition assessed as growth inhibition at 500 g /ha measured after 27 days; assay type: functional, organism-based
# Echinochloa oryzicola [16] = assay: Herbicidal activity against Echinochloa oryzicola grown in water-drained pot under greenhouse condition assessed as growth inhibition at 500 g /ha measured after 42 days; assay type: functional, organism-based
# Echinochloa oryzicola [17] = assay: Herbicidal activity against Echinochloa oryzicola under greenhouse condition assessed as growth inhibition at 500 g /ha measured after 13 days; assay type: functional, organism-based
# Echinochloa oryzicola [18] = assay: Herbicidal activity against Echinochloa oryzicola under greenhouse condition assessed as time duration of residual effect at 500 g /ha; assay type: functional
# Echinochloa oryzicola [19] = assay: Herbicidal activity against Echinochloa oryzicola grown in water-drained pot under greenhouse condition assessed as growth inhibition at 500 g /ha measured after 13 days; assay type: functional, organism-based
# Echinochloa oryzicola [20] = assay: Herbicidal activity against Echinochloa oryzicola under greenhouse condition assessed as growth inhibition at 500 g /ha measured after 6 days; assay type: functional, organism-based
# Echinochloa oryzicola [21] = assay: Herbicidal activity against Echinochloa oryzicola under greenhouse condition assessed as growth inhibition at 500 g /ha measured after 20 days; assay type: functional, organism-based
# Echinochloa oryzicola [22] = assay: Herbicidal activity against Echinochloa oryzicola under greenhouse condition assessed as growth inhibition at 125 g /ha measured after 6 days; assay type: functional, organism-based
# Echinochloa oryzicola [23] = assay: Herbicidal activity against Echinochloa oryzicola grown in water-drained pot under greenhouse condition assessed as time duration of residual effect at 500 g /ha; assay type: functional
# Echinochloa oryzicola [24] = assay: Herbicidal activity against Echinochloa oryzicola under greenhouse condition assessed as growth inhibition at 500 g /ha measured after 27 days; assay type: functional, organism-based
# Echinochloa oryzicola [25] = assay: Herbicidal activity against Echinochloa oryzicola grown in water-drained pot under greenhouse condition assessed as growth inhibition at 125 g /ha measured after 33 days; assay type: functional, organism-based
# Echinochloa oryzicola [26] = assay: Herbicidal activity against Echinochloa oryzicola grown in water-drained pot under greenhouse condition assessed as time duration of residual effect at 125 g /ha; assay type: functional
# Echinochloa oryzicola [27] = assay: Herbicidal activity against Echinochloa oryzicola under greenhouse condition assessed as growth inhibition at 125 g /ha measured after 42 days; assay type: functional, organism-based
# Echinochloa oryzicola [28] = assay: Herbicidal activity against Echinochloa oryzicola grown in water-drained pot under greenhouse condition assessed as growth inhibition at 125 g /ha measured after 42 days; assay type: functional, organism-based
# Echinochloa oryzicola [29] = assay: Herbicidal activity against Echinochloa oryzicola grown in water-drained pot under greenhouse condition assessed as growth inhibition at 250 g /ha measured after 33 days; assay type: functional, organism-based
# Echinochloa oryzicola [30] = assay: Herbicidal activity against Echinochloa oryzicola under greenhouse condition assessed as growth inhibition at 1000 g /ha measured after 42 days; assay type: functional, organism-based
# Echinochloa oryzicola [31] = assay: Herbicidal activity against Echinochloa oryzicola under greenhouse condition assessed as growth inhibition at 250 g /ha measured after 20 days; assay type: functional, organism-based
# Echinochloa oryzicola [32] = assay: Herbicidal activity against Echinochloa oryzicola under greenhouse condition assessed as time duration of residual effect at 250 g /ha; assay type: functional
# Echinochloa oryzicola [33] = assay: Herbicidal activity against Echinochloa oryzicola under greenhouse condition assessed as time duration of residual effect at 1000 g /ha; assay type: functional
# Echinochloa oryzicola [34] = assay: Herbicidal activity against Echinochloa oryzicola grown in water-drained pot under greenhouse condition assessed as growth inhibition at 250 g /ha measured after 42 days; assay type: functional, organism-based
# Echinochloa oryzicola [35] = assay: Herbicidal activity against Echinochloa oryzicola under greenhouse condition assessed as growth inhibition at 250 g /ha measured after 27 days; assay type: functional, organism-based
# Echinochloa oryzicola [36] = assay: Herbicidal activity against Echinochloa oryzicola grown in water-drained pot under greenhouse condition assessed as growth inhibition at 250 g /ha measured after 13 days; assay type: functional, organism-based
# Echinochloa oryzicola [37] = assay: Herbicidal activity against Echinochloa oryzicola under greenhouse condition assessed as growth inhibition at 250 g /ha measured after 13 days; assay type: functional, organism-based
# Echinochloa oryzicola [38] = assay: Herbicidal activity against Echinochloa oryzicola grown in water-drained pot under greenhouse condition assessed as growth inhibition at 1000 g /ha measured after 20 days; assay type: functional, organism-based
# Echinochloa oryzicola [39] = assay: Herbicidal activity against Echinochloa oryzicola grown in water-drained pot under greenhouse condition assessed as time duration of residual effect at 250 g /ha; assay type: functional
# Echinochloa oryzicola [40] = assay: Herbicidal activity against Echinochloa oryzicola grown in water-drained pot under greenhouse condition assessed as growth inhibition at 1000 g /ha measured after 33 days; assay type: functional, organism-based
# Echinochloa oryzicola [41] = assay: Herbicidal activity against Echinochloa oryzicola grown in water-drained pot under greenhouse condition assessed as growth inhibition at 1000 g /ha measured after 6 days; assay type: functional, organism-based
# Echinochloa oryzicola [42] = assay: Herbicidal activity against Echinochloa oryzicola grown in water-drained pot under greenhouse condition assessed as growth inhibition at 1000 g /ha measured after 42 days; assay type: functional, organism-based
# Echinochloa oryzicola [43] = assay: Herbicidal activity against Echinochloa oryzicola under greenhouse condition assessed as growth inhibition at 250 g /ha measured after 42 days; assay type: functional, organism-based
# Echinochloa oryzicola [44] = assay: Herbicidal activity against Echinochloa oryzicola grown in water-drained pot under greenhouse condition assessed as growth inhibition at 1000 g /ha measured after 27 days; assay type: functional, organism-based
# Echinochloa oryzicola [45] = assay: Herbicidal activity against Echinochloa oryzicola grown in water-drained pot under greenhouse condition assessed as growth inhibition at 250 g /ha measured after 6 days; assay type: functional, organism-based
# Echinochloa oryzicola [46] = assay: Herbicidal activity against Echinochloa oryzicola grown in water-drained pot under greenhouse condition assessed as growth inhibition at 250 g /ha measured after 20 days; assay type: functional, organism-based
# Echinochloa oryzicola [47] = assay: Herbicidal activity against Echinochloa oryzicola under greenhouse condition assessed as growth inhibition at 1000 g /ha measured after 27 days; assay type: functional, organism-based
# Echinochloa oryzicola [48] = assay: Herbicidal activity against Echinochloa oryzicola under greenhouse condition assessed as growth inhibition at 1000 g /ha measured after 6 days; assay type: functional, organism-based
# Echinochloa oryzicola [49] = assay: Herbicidal activity against Echinochloa oryzicola under greenhouse condition assessed as growth inhibition at 1000 g /ha measured after 13 days; assay type: functional, organism-based
# Echinochloa oryzicola [50] = assay: Herbicidal activity against Echinochloa oryzicola grown in water-drained pot under greenhouse condition assessed as growth inhibition at 1000 g /ha measured after 13 days; assay type: functional, organism-based
# Echinochloa oryzicola [51] = assay: Herbicidal activity against Echinochloa oryzicola under greenhouse condition assessed as growth inhibition at 250 g /ha measured after 6 days; assay type: functional, organism-based
# Echinochloa oryzicola [52] = assay: Herbicidal activity against Echinochloa oryzicola grown in water-drained pot under greenhouse condition assessed as growth inhibition at 250 g /ha measured after 27 days; assay type: functional, organism-based
# Echinochloa oryzicola [53] = assay: Herbicidal activity against Echinochloa oryzicola under greenhouse condition assessed as growth inhibition at 1000 g /ha measured after 20 days; assay type: functional, organism-based
# Echinochloa oryzicola [54] = assay: Herbicidal activity against Echinochloa oryzicola under greenhouse condition assessed as growth inhibition at 1000 g /ha measured after 33 days; assay type: functional, organism-based
# Echinochloa oryzicola [55] = assay: Herbicidal activity against Echinochloa oryzicola under greenhouse condition assessed as growth inhibition at 250 g /ha measured after 33 days; assay type: functional, organism-based
# Echinochloa oryzicola [56] = assay: Herbicidal activity against Echinochloa oryzicola grown in water-drained pot under greenhouse condition assessed as time duration of residual effect at 1000 g /ha; assay type: functional
smiles,measurement,setting,value
CCCOCCN(C(=O)CCl)c1c(CC)cccc1CC [PRETILACHLOR],growth inhibition (GI),Echinochloa oryzicola [1],Active
same,growth inhibition (GI),Echinochloa oryzicola [2],Active
same,growth inhibition (GI),Echinochloa oryzicola [3],Active
same,growth inhibition (GI),Echinochloa oryzicola [4],Active
same,growth inhibition (GI),Echinochloa oryzicola [5],Active
same,growth inhibition (GI),Echinochloa oryzicola [6],Active
same,growth inhibition (GI),Echinochloa oryzicola [7],inactive
same,growth inhibition (GI),Echinochloa oryzicola [8],inactive
same,growth inhibition (GI),Echinochloa oryzicola [9],inactive
same,growth inhibition (GI),Echinochloa oryzicola [10],Active
same,growth inhibition (GI),Echinochloa oryzicola [11],inactive
same,Time,Echinochloa oryzicola [12],13 days
same,growth inhibition (GI),Echinochloa oryzicola [13],inactive
same,growth inhibition (GI),Echinochloa oryzicola [14],Active
same,growth inhibition (GI),Echinochloa oryzicola [15],Active
same,growth inhibition (GI),Echinochloa oryzicola [16],inactive
same,growth inhibition (GI),Echinochloa oryzicola [17],Active
same,Time,Echinochloa oryzicola [18],27 days
same,growth inhibition (GI),Echinochloa oryzicola [19],Active
same,growth inhibition (GI),Echinochloa oryzicola [20],Active
same,growth inhibition (GI),Echinochloa oryzicola [21],Active
same,growth inhibition (GI),Echinochloa oryzicola [22],Active
same,Time,Echinochloa oryzicola [23],16 days
same,growth inhibition (GI),Echinochloa oryzicola [24],Active
same,growth inhibition (GI),Echinochloa oryzicola [25],inactive
same,Time,Echinochloa oryzicola [26],6 days
same,growth inhibition (GI),Echinochloa oryzicola [27],inactive
same,growth inhibition (GI),Echinochloa oryzicola [28],inactive
CN(C(=O)COc1nc2ccccc2s1)c1ccccc1 [MEFENACET],growth inhibition (GI),Echinochloa oryzicola [29],inactive
same,growth inhibition (GI),Echinochloa oryzicola [30],Active
same,growth inhibition (GI),Echinochloa oryzicola [31],Active
same,Time,Echinochloa oryzicola [32],13 days
same,Time,Echinochloa oryzicola [33],33 days
same,growth inhibition (GI),Echinochloa oryzicola [34],inactive
same,growth inhibition (GI),Echinochloa oryzicola [35],inactive
same,growth inhibition (GI),Echinochloa oryzicola [36],Active
same,growth inhibition (GI),Echinochloa oryzicola [37],Active
same,growth inhibition (GI),Echinochloa oryzicola [38],Active
same,Time,Echinochloa oryzicola [39],13 days
same,growth inhibition (GI),Echinochloa oryzicola [40],Active
same,growth inhibition (GI),Echinochloa oryzicola [41],Active
same,growth inhibition (GI),Echinochloa oryzicola [42],Active
same,growth inhibition (GI),Echinochloa oryzicola [43],inactive
same,growth inhibition (GI),Echinochloa oryzicola [44],Active
same,growth inhibition (GI),Echinochloa oryzicola [45],Active
same,growth inhibition (GI),Echinochloa oryzicola [46],inactive
same,growth inhibition (GI),Echinochloa oryzicola [47],Active
same,growth inhibition (GI),Echinochloa oryzicola [48],Active
same,growth inhibition (GI),Echinochloa oryzicola [49],Active
same,growth inhibition (GI),Echinochloa oryzicola [50],Active
same,growth inhibition (GI),Echinochloa oryzicola [51],Active
same,growth inhibition (GI),Echinochloa oryzicola [52],inactive
same,growth inhibition (GI),Echinochloa oryzicola [53],Active
same,growth inhibition (GI),Echinochloa oryzicola [54],Active
same,growth inhibition (GI),Echinochloa oryzicola [55],inactive
same,Time,Echinochloa oryzicola [56],33 days
